Measured values as given in patent US8389557B2, “Triazole derivatives useful as Axl inhibitors” (Rigel Pharmaceuticals, Inc., priority 2005, dated 2013).
Counter-ions that a name gives are not always drawn.

Biological target: T1, Axl (Homo sapiens, UniProt P30530)
T1 construct: endogenous in cells; host or cells: HeLa cells
T1 sequence (P30530 26-894): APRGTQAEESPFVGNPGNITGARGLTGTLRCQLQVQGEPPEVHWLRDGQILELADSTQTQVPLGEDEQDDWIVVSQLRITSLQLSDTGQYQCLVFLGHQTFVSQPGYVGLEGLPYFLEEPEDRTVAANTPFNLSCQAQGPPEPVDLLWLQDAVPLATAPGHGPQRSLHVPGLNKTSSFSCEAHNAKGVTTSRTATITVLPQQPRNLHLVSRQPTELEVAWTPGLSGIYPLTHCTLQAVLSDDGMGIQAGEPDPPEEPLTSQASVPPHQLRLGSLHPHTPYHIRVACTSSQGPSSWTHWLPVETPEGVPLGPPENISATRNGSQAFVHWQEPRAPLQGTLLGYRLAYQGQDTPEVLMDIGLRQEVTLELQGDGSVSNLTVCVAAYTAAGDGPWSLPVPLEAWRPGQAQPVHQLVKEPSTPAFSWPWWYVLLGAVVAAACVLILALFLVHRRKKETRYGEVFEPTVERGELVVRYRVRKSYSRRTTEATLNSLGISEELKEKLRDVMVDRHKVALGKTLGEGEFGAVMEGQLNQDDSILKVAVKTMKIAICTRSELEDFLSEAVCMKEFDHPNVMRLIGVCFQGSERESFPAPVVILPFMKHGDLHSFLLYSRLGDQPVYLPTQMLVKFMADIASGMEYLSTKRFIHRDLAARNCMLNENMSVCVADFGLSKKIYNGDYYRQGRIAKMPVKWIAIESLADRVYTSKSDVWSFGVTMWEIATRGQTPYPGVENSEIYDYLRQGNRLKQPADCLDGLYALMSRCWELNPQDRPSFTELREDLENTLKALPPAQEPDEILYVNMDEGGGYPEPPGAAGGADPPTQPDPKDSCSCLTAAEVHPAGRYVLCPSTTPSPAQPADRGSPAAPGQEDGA
Assay: Phospho-Akt in-cell Western assay (inhibition of Axl activity)
Type: cell-based
Procedure: The compounds of the invention were tested in the following assay for their ability to inhibit Axl activity.
Phospho-Akt in-Cell Western Assay
• Cell culture plate: 96 well assay plate (Corning 3610), white, clear bottom, tissue-culture treated. • Cells: Hela cells. • Starvation medium: For Axl stimulation: 0.5% FCS (fetal calf serum) in DMEM, plus Axl/Fc (extracellular domain of AXL fused to immunoglobulin Fc region) (R&D, 154-AL) 500 ng/mL. • For EGF (epidermal growth factor) stimulation: 0.5% FCS in DMEM (Dulbecco's modified Eagles medium). • Poly-L-Lysine 0.01% solution (the working solution): 10 μg/ml, dilute In PBS (phosphate buffered saline). • Axl antibody cross-linking: • 1st: Mouse anti-Axl (R&D, MAB154). • 2nd: Biotin-SP-conjugated AffiniPure goat anti-mouse IgG (H+L) (Jackson ImmunoResearch #115-065-003). • Fixing buffer: 4% formaldehyde in PBS. • Wash buffer: 0.1% TritonX-100 in PBS. • Quenching buffer: 3% H2O2, 0.1% Azide in wash buffer, Azide and hydrogen peroxide (H2O2) are added fresh. • Blocking buffer: 5% BSA in TBST (tris buffered saline plus 0.1% Tween 20). • Primary antibody: Rabbit anti-human Phospho-Akt antibody (Cell Signaling 9271): 1×250 diluted in blocking buffer. • Secondary antibody: HRP (horse radish peroxidase)-conjugated Goat anti-Rabbit secondary, stock solution: Jackson ImmunoResearch (Goat anti-Rabbit HRP, #111-035-144) 1:1 diluted in glycerol, store at −20° C. The working solution: 1×2000 dilution of stock in blocking buffer. • Chemiluminescent working solution (Pierce, 37030): SuperSignal ELISA (enzyme linked immunosorbant assay) Pico Chemiluminescent substrate. • Crystal Violet solution: Stock: 2.5% Crystal violet in methanol, filtered and kept at ambient temperature. The working solution: dilute the stock 1:20 with PBS immediately before use. • 10% SDS: working solution: 5% SDS (sodium dodecylsulfate), diluted in PBS Methods: Day 1:
A 96 well TC (tissue culture treated) plate was coated with 10 μg/mL poly-L-Lysine at 37° C. for 30 min, washed twice with PBS, and air-dried for 5 minutes before cells were added. Hela cells were seeded at 10,000 cells/well and the cells were starved in 100 μL starvation medium containing Axl/Fc for 24 hrs.
The cells were pre-treated with test compounds by adding 100 μL of 2× test compound to the starvation medium on the cells. The cells were incubated at 37° C. for 1 hr before stimulation.
The cells were stimulated by Axl-antibody cross-linking as follows: A 5×1st/2nd Axl antibody mixture was made (37.5 μg/mL 1st/100 μg/mL 2nd) in starvation medium and nutated at 4° C. with thorough mixing for 1-2 hours for clustering. The resulting mix was warmed to 37° C. 50 μL of 5× Axl 1st/2nd of antibody cluster was added to the cells and the cells were incubated at 37° C. for 5 min.
After 5 minutes stimulation, the plate was flicked to remove medium and the plate was tapped onto paper towels. Formaldehyde (4.0% in PBS, 100 μL) was added to fix the cells and the cells were incubated at ambient temperature for 20 min without shaking.
The cells were washed with a plate washer buffer to remove the formaldehyde solution. The plate was flicked to removed excess wash buffer and tapped onto paper towels. Quenching buffer (100 μL) was added to each well and the cells were incubated at ambient temperature for 20 minutes without shaking.
The cells were washed with a plate washer buffer to remove the quenching buffer. Blocking buffer (100 μL) was added and the cells were incubated at ambient temperature for at least an hour with gentle shaking.
The cells were washed with a plate washer buffer and diluted primary antibody (50 μL) was added to each well (blocking buffer was added to the negative control wells instead). The plates were incubated overnight at 4° C. with gentle shaking.
The wash buffer was removed, diluted secondary antibody (100 μL) was added, and the cells were incubated at ambient temperature for 1 hour with gentle shaking. […]

[1] = inhibition of Axl activity, Table 1
[2] = Table 7, Hela cells, Axl antibody cross-linking stimulation, phospho-Akt chemiluminescence

Compound | IC50 [2] | also measured
CC(C)Oc1ccc(C(=O)n2nc(Nc3ccc(OCCN4CCCC4)cc3)nc2N)cc1 [(Ia-2), 5-amino-1-(4-(iso-propoxy)phenyl)carbonyl-3-[4-[2-(pyrrolidin-1-yl)ethoxy]phenylamino]-1H-1,2,4-triazole] |  | IC50 (inhibition of Axl activity, phospho-Akt in-cell Western assay, Table 1): < 1000 nM
Cc1ccc(C(=O)n2nc(Nc3ccc(O)cc3)nc2N)cc1 [(Ia-4), 5-amino-3-[4-(hydroxy)phenylamino]-1-(4-methylphenyl)carbonyl-1H-1,2,4-triazole] |  | IC50 [1]: > 20000 nM
Cc1ccccc1C(=O)n1nc(Nc2cccc(O)c2)nc1N [(Ia-6), 5-amino-3-[3-(hydroxy)phenylamino]-1-(2-(methyl)phenyl)carbonyl-1H-1,2,4-triazole] |  | IC50 [1]: > 20000 nM
Cc1cccc(C(=O)n2nc(Nc3cccc(O)c3)nc2N)c1 [(Ia-7), 5-amino-3-[3-(hydroxy)phenylamino]-1-(3-(methyl)phenyl)carbonyl-1H-1,2,4-triazole] |  | IC50 [1]: 1000 to 10000 nM
Cc1ccc(C(=O)n2nc(Nc3cccc(O)c3)nc2N)cc1 [(Ia-15), 5-amino-3-[3-(hydroxy)phenylamino]-1-(4-(methyl)phenyl)carbonyl-1H-1,2,4-triazole] |  | IC50 [1]: 10000 to 20000 nM
CC(C)Oc1ccc(C(=O)n2nc(Nc3cccc(OCC#N)c3)nc2N)cc1 [(Ia-21), 5-amino-3-[3-(cyanomethoxy)phenylamino]-1-(4-(iso-propoxy)phenyl)carbonyl-1H-1,2,4-triazole] |  | IC50 [1]: 1000 to 10000 nM
Nc1nc(Nc2cccc(OCCN3CCOCC3)c2)nn1C(=O)c1ccccc1 [(Ia-26), 5-amino-3-[3-[2-(morpholin-4-yl)ethoxy]phenylamino]-1-phenylcarbonyl-1H-1,2,4-triazole, hydrogen chloride salt] |  | IC50 [1]: > 20000 nM
Nc1nc(Nc2ccc(OCCN3CCCCC3)cc2)nn1C(=O)Nc1ccc2c(c1)OCO2 [compound 35, 5-amino-N-(1,3-benzodioxol-5-yl)-3-[4-[2-(piperidin-1-yl)ethoxy]phenylamino]-1H-1,2,4-triazole-1-carboxamide] | 1000 to 10000 nM | 
Nc1nc(Nc2ccc(OCCN3CCCC3)cc2)nn1C(=O)Nc1ccc2c(c1)OCO2 [compound 36, 5-amino-N-(1,3-benzodioxol-5-yl)-3-[4-[2-(pyrrolidin-1-yl)ethoxy]phenylamino]-1H-1,2,4-triazole-1-carboxamide] | 1000 to 10000 nM | 
Cc1ccc(NC(=O)n2nc(Nc3ccc(OCCN4CCCCC4)cc3)nc2N)cc1 [compound 39, 5-amino-N-(4-methylphenyl)-3-[4-[2-(piperidin-1-yl)ethoxy]phenylamino]-1H-1,2,4-triazole-1-carboxamide] | 1000 to 10000 nM | 
CC(C)c1ccc(NC(=O)n2nc(Nc3ccc(OCCN4CCCCC4)cc3)nc2N)cc1 [compound 41, 5-amino-N-(4-(iso-propyl)phenyl)-3-[4-[2-(piperidin-1-yl)ethoxy]phenylamino]-1H-1,2,4-triazole-1-carboxamide] | 1000 to 10000 nM | 
Nc1nc(Nc2ccc(OCCN3CCCCC3)cc2)nn1C(=O)NC1CCCCC1 [compound 42, 5-amino-N-cyclohexyl-3-[4-[2-(piperidin-1-yl)ethoxy]phenylamino]-1H-1,2,4-triazole-1-carboxamide] | 1000 to 10000 nM | 

The next lines start with results.

IC50 [2] | Compound | also measured
< 1000 nM | Cc1cccc(NC(=O)n2nc(Nc3ccc(OCCN4CCCCC4)cc3)nc2N)c1 [compound 29, 5-amino-N-(3-methylphenyl)-3-[4-[2-(piperidin-1-yl)ethoxy]phenylamino]-1H-1,2,4-triazole-1-carboxamide] | 
< 1000 nM | COc1cccc(NC(=O)n2nc(Nc3ccc(OCCN4CCCCC4)cc3)nc2N)c1 [compound 30, 5-amino-N-(3-methoxyphenyl)-3-[4-[2-(piperidin-1-yl)ethoxy]phenylamino]-1H-1,2,4-triazole-1-carboxamide] | 
< 1000 nM | Cc1cccc(NC(=O)n2nc(Nc3ccc(OCCN4CCCC4)cc3)nc2N)c1 [compound 31, 5-amino-N-(3-methylphenyl)-3-[4-[2-(pyrrolidin-1-yl)ethoxy]phenylamino]-1H-1,2,4-triazole-1-carboxamide] | 
< 1000 nM | COc1cccc(NC(=O)n2nc(Nc3ccc(OCCN4CCCC4)cc3)nc2N)c1 [compound 32, 5-amino-N-(3-methoxyphenyl)-3-[4-[2-(pyrrolidin-1-yl)ethoxy]phenylamino]-1H-1,2,4-triazole-1-carboxamide] | 
< 1000 nM | COc1cc(NC(=O)n2nc(Nc3ccc(OCCN4CCCCC4)cc3)nc2N)cc(OC)c1 [compound 33, 5-amino-N-(3,5-(dimethoxy)phenyl)-3-[4-[2-(piperidin-1-yl)ethoxy]phenylamino]-1H-1,2,4-triazole-1-carboxamide] | 
< 1000 nM | COc1cc(NC(=O)n2nc(Nc3ccc(OCCN4CCCC4)cc3)nc2N)cc(OC)c1 [compound 34, 5-amino-N-(3,5-(dimethoxy)phenyl)-3-[4-[2-(pyrrolidin-1-yl)ethoxy]phenylamino]-1H-1,2,4-triazole-1-carboxamide] | 
1000 to 10000 nM | Cc1ccc(NC(=O)n2nc(Nc3ccc(OCCN4CCCC4)cc3)nc2N)cc1 [compound 37, 5-amino-N-(4-methylphenyl)-3-[4-[2-(pyrrolidin-1-yl)ethoxy]phenylamino]-1H-1,2,4-triazole-1-carboxamide] | 
1000 to 10000 nM | Cc1ccc(NC(=O)n2nc(Nc3ccc(OCCN4CCCCC4)cc3)nc2N)cc1C [compound 38, 5-amino-N-(3,4-(dimethyl)phenyl)-3-[4-[2-(piperidin-1-yl)ethoxy]phenylamino]-1H-1,2,4-triazole-1-carboxamide] | 
1000 to 10000 nM | COc1ccc(NC(=O)n2nc(Nc3ccc(OCCN4CCCCC4)cc3)nc2N)cc1 [compound 40, 5-amino-N-(4-(methoxy)phenyl)-3-[4-[2-(piperidin-1-yl)ethoxy]phenylamino]-1H-1,2,4-triazole-1-carboxamide] | 
1000 to 10000 nM | COc1ccc(NC(=O)n2nc(Nc3ccc(OCCN4CCCCC4)cc3)nc2N)cc1OC [compound 43, 5-amino-N-(3,4-(dimethoxy)phenyl)-3-[4-[2-(piperidin-1-yl)ethoxy]phenylamino]-1H-1,2,4-triazole-1-carboxamide] | 
